Measurements as given in patent US8349872B2, “Tripyridyl carboxamide orexin receptor antagonists” (Merck Sharp & Dohme Corp., priority 2008, dated 2013).

Target: T1, OX2 receptor (Homo sapiens, UniProt O43614)
T1 construct: expressed in transfected cells; host or cells: CHO cells (membranes)
T1 sequence (O43614 1-444): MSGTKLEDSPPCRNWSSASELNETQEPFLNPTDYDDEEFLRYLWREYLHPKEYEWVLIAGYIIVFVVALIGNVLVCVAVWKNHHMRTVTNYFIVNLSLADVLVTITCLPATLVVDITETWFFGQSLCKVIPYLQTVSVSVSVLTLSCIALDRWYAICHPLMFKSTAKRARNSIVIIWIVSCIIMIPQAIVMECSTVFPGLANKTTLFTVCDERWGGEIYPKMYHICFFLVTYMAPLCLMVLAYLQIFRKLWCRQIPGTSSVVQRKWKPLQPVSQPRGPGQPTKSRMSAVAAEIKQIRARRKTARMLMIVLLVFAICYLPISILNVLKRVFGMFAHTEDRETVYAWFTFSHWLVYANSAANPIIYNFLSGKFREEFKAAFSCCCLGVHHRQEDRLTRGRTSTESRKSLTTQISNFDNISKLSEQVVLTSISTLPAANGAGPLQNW
Assay: radioligand binding assay, OX2 receptor
Conditions: membranes prepared from CHO cells expressing the OX2 receptor; read-out: OX2R Ki
Experimental: The utility of the compounds in accordance with the present invention as orexin receptor OX1R and/or OX2R antagonists may be readily determined without undue experimentation by methodology well known in the art, including the “FLIPR Ca^2+ Flux Assay” (Okumura et al., Biochem. Biophys. Res. Comm. 280:976-981, 2001). In a typical experiment the OX1 and OX2 receptor antagonistic activity of the compounds of the present invention was determined in accordance with the following experimental method. For intracellular calcium measurements, Chinese hamster ovary (CHO) cells expressing the rat orexin-1 receptor or the human orexin-2 receptor, are grown in Iscove's modified DMEM containing 2 mM L-glutamine, […], 1% hypoxanthine-thymidine supplement, 100 U/ml penicillin, 100 ug/ml streptomycin and 10% heat-inactivated fetal calf serum (FCS). The cells are seeded at 20,000 cells/well into Becton-Dickinson black 384-well clear bottom sterile plates coated with poly-D-lysine. All reagents were from GIBCO-Invitrogen Corp. The seeded plates are incubated overnight at 37° C. and 5% CO2. Ala-6,12 human orexin-A as the agonist is prepared as a 1 mM stock solution in 1% bovine serum albumin (BSA) and diluted in assay buffer (HBSS containing 20 mM HEPES, 0.1% BSA and 2.5 mM probenecid, pH 7.4) for use in the assay at a final concentration of 70 pM. Test compounds are prepared as 10 mM stock solution in DMSO, then diluted in 384-well plates, first in DMSO, then assay buffer. On the day of the assay, cells are washed 3 times with 100 ul assay buffer and then incubated for 60 min (37° C., 5% CO2) in 60 ul assay buffer containing 1 uM Fluo-4AM ester, 0.02% pluronic acid, and 1% BSA. The dye loading solution is then aspirated and cells are washed 3 times with 100 ul assay buffer. 30 ul of that same buffer is left in each well. Within the Fluorescent Imaging Plate Reader (FLIPR, Molecular Devices), test compounds are added to the plate in a volume of 25 ul, incubated for 5 min and finally 25 ul of agonist is added. Fluorescence is measured for each well at 1 second intervals for 5 minutes and the height of each fluorescence peak is compared to the height of the fluorescence peak induced by 70 pM Ala-6,12 orexin-A with buffer in place of antagonist. For each antagonist, IC50 value (the concentration of compound needed to inhibit 50% of the agonist response) is determined. Alternatively, compound potency can be assessed by a radioligand binding assay (described in Bergman et. al. Bioorg. Med. Chem. Lett. 2008, 18, 1425-1430) in which the inhibition constant (Ki) is determined in membranes prepared from CHO cells expressing either the OX1 or OX2 receptor. The intrinsic orexin receptor antagonist activity of a compound which may be used in the present invention may be determined by these assays.

| Molecule | Ki |
| --- | --- |
| COc1ccc(CNC(=O)c2cc(-c3cncc(Cl)c3)cnc2-c2ccccn2)nc1OC [12-5, 5″-chloro-N-[(5,6-dimethoxypyridin-2-yl)methyl]-2,2′:5′,3″-terpyridine-3′-carboxamide] | 0.54 nM |
| COc1ccc(CNC(=O)c2cc(-c3cncc(C#N)c3)cnc2-c2ccccn2)nc1OC [12-14, 5″-cyano-N-[(5,6-dimethoxypyridin-2-yl)methyl]-2,2′:5′,3″- terpyridine-3′-carboxamide] | 12 nM |
| N-(4-ethyl-3- methoxybenzyl)-5″- methyl-2,2′:5′,3″- terpyridine-3′- carboxamide [12-17] | 1.2 nM |

Further lines, results first:

| Ki | Molecule |
| --- | --- |
| 1.3 nM | COc1ccc(CNC(=O)c2cc(-c3cc(C)cnc3F)cnc2-c2ccccn2)cc1Cl [11-5, N-(3-chloro-4-methoxybenzyl)-2″-fluoro-5″- methyl-2,2′: 5′,3 ″-terpyridine-3′-carboxamide] |
| 0.46 nM | COc1ccc(CNC(=O)c2cc(-c3cncc(C)c3)cnc2-c2ccccn2)nc1OC [12-6, N-[(5,6-dimethoxypyridin-2-yl)methyl]-5″-methyl-2,2′:5′,3″-terpyridine-3′-carboxamide] |
